Data reported in doi:10.1101/2025.03.04.641560v1 (biorxiv, 2025).
Like-named read-outs stand apart in the source and are kept apart here.

Experiments:
[1] = test system: Td2F2; details: 10 mM HEPES pH 7.4; Mutant A
[2] = test system: Td2F2; assay: fluorescence plate reader, Michaelis-Menten fit; type: biochemical, uncultured bacterium; details: 10 mM HEPES pH 7.4
[3] = molecular target: β-galactosidase (LacZ) (Escherichia coli, UniProt P00722); assay: fluorescence plate reader, Michaelis-Menten fit; type: biochemical; details: 10 mM HEPES pH 7.4
β-galactosidase (LacZ), sequence (P00722 2-1024): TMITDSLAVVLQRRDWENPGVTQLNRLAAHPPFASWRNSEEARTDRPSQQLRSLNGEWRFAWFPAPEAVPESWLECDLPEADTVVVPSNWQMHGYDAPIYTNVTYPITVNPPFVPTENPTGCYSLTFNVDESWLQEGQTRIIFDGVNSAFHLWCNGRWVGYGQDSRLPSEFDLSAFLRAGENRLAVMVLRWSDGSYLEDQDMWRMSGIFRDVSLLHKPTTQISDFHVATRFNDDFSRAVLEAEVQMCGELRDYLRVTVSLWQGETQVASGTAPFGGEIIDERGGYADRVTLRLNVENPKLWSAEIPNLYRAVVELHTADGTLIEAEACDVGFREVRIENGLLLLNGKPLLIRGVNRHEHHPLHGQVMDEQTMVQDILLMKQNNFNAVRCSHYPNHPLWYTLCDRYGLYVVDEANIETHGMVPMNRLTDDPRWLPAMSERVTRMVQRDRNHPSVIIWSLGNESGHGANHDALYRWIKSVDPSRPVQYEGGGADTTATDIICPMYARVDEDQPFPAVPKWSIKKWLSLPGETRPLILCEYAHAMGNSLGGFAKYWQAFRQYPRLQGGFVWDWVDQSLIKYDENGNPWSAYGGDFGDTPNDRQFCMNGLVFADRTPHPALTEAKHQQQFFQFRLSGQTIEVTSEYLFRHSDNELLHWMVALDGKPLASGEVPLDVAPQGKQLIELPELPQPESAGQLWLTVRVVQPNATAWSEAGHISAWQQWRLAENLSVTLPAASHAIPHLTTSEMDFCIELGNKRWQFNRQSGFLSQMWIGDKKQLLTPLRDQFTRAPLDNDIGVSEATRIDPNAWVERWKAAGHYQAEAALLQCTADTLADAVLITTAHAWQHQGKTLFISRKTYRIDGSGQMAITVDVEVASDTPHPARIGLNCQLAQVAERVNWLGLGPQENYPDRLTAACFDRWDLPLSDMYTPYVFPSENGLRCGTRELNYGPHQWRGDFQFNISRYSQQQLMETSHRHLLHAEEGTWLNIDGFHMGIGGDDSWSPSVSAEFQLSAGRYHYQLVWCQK

| SMILES | Km [1] [µM] | Km [2] [µM] | Km [3] [µM] |
| --- | --- | --- | --- |
| C[C@H]1O[C@@H](Oc2ccc3c(c2)Oc2cc(NCC(F)(F)F)ccc2C32OCc3ccccc32)[C@H](O)[C@@H](O)[C@H]1O (stereo partly drawn) [HMRef-β-D-Fuc, HMRef-β-D-fucose] | 3.7 | 190 | – |
| OC[C@H]1O[C@@H](Oc2ccc3c(c2)Oc2cc(NCC(F)(F)F)ccc2C32OCc3ccccc32)[C@H](O)[C@@H](O)[C@H]1O (stereo partly drawn) [HMRef-β-D-Gal] | – | – | 73 |
